Some test systems named below: HOP-92 NSCLC; HL-60(TB) leukemia; 786-0 renal; SK-OV-3 ovarian; LOX IMVI melanoma; KM12 colon; SF-539 CNS; OVCAR-4 ovarian; CAKI-1 renal.
What all share (assay): NCI anticancer screen, dose series, 48 h

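Grown in 96-well plates, cells were treated for 48 hours with each compound at five concentrations. Insufficient inhibition: endpoint recorded as highest concentration tested. At the GI50, growth is halved. TGI is the concentration that stops growth completely.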

On to `CC1=C(C(=O)Nc2cc(=O)n(C)c(=O)n2C)C(c2ccc([N+](=O)[O-])cc2)C(C(=O)Nc2cc(=O)n(C)c(=O)n2C)=C(C)N1`, for which the TGI in the assay on HOP-92 NSCLC was 85.7 µM; with HL-60(TB) leukemia it was greater than 100 µM; with 786-0 renal, greater than 100 µM; in the assay with SK-OV-3 ovarian it was greater than 100 µM; in the assay with LOX IMVI melanoma, greater than 100 µM; in the assay with KM12 colon, greater than 100 µM. Besides, the TGI with SF-539 CNS and with OVCAR-4 ovarian was greater than 100 µM each time.
As to `COc1cc(O)c2c(c1)C(=O)C=C(Cl)C2=O`, the TGI in the assay with HOP-92 NSCLC, in the assay with HL-60(TB) leukemia, with 786-0 renal, with CAKI-1 renal, with SK-OV-3 ovarian and with LOX IMVI melanoma was greater than 100 µM in each case. The TGI in the assay on KM12 colon, in the assay on SF-539 CNS and in the assay with OVCAR-4 ovarian was greater than 100 µM throughout.
On to `Cc1ccccc1C(=O)Oc1ccc(O)cc1`, for which the TGI in the assay on HL-60(TB) leukemia, in the assay with 786-0 renal, in the assay on CAKI-1 renal, in the assay on SK-OV-3 ovarian, in the assay with KM12 colon and in the assay on SF-539 CNS was greater than 100 µM in each case. The compound further showed a TGI in the assay on OVCAR-4 ovarian greater than 100 µM.
With `CC(C)C1CC2C(=O)N(c3ccccc3)C(=O)C2c2[nH]c3ccccc3c21` (stereo unspecified), the TGI in the assay with HL-60(TB) leukemia was 93.9 µM; in the assay with 786-0 renal, greater than 100 µM; in the assay with CAKI-1 renal it was greater than 100 µM; with SK-OV-3 ovarian, 79.4 µM; with KM12 colon, greater than 100 µM; in the assay with SF-539 CNS it was 67.5 µM. Besides, in the assay on OVCAR-4 ovarian, the TGI came out at 5.63 µM.
For `CN(/N=C/c1cccc2cccnc12)c1ccc([N+](=O)[O-])cc1`, the TGI with HOP-92 NSCLC, in the assay on HL-60(TB) leukemia, in the assay with 786-0 renal, in the assay with CAKI-1 renal, with SK-OV-3 ovarian and in the assay with LOX IMVI melanoma was greater than 100 µM in each case. In addition, the TGI in the assay on KM12 colon and in the assay on SF-539 CNS was greater than 100 µM throughout.
`CN1C(c2ccccc2)CS(=O)(=O)CS1(=O)=O` (stereo unspecified): the TGI in the assay with 786-0 renal, in the assay on CAKI-1 renal, in the assay with SK-OV-3 ovarian, with LOX IMVI melanoma, in the assay on KM12 colon and in the assay with SF-539 CNS was greater than 100 µM each time. This compound also yielded a TGI in the assay with OVCAR-4 ovarian greater than 100 µM.
Regarding `CC(=O)OC1CC2Oc3ccc(C)cc3C(C)(O2)C1=O` (stereo unspecified), the TGI in the assay with HL-60(TB) leukemia, with 786-0 renal, with SK-OV-3 ovarian, in the assay with LOX IMVI melanoma, in the assay on KM12 colon and with SF-539 CNS was greater than 100 µM in each case.
On to `Nc1nc2cc3ccc(C4CC(O)C(CO)O4)cc3cc2c(=O)[nH]1` (stereo unspecified), for which the GI50 in the assay on HOP-92 NSCLC, in the assay on 786-0 renal, in the assay with CAKI-1 renal, in the assay on SK-OV-3 ovarian, in the assay with LOX IMVI melanoma and with SF-539 CNS was greater than 100 µM in each case. Besides, in the assay on OVCAR-4 ovarian, the GI50 was greater than 100 µM. In addition, the TGI in the assay on HOP-92 NSCLC, in the assay on 786-0 renal, with CAKI-1 renal, in the assay with SK-OV-3 ovarian, with LOX IMVI melanoma and with SF-539 CNS was greater than 100 µM throughout. The same compound gave a TGI with OVCAR-4 ovarian greater than 100 µM.
As for `CC(=O)O[C@H]1CCC2[C@@H]3CCC4=C(O)C(=O)C(C#N)C[C@]4(C)C3CC[C@@]21C` (stereo partly specified), the TGI was 8.33 µM with HOP-92 NSCLC; 85.3 µM with HL-60(TB) leukemia; greater than 100 µM with 786-0 renal; greater than 100 µM in the assay with SK-OV-3 ovarian; greater than 100 µM in the assay with LOX IMVI melanoma; greater than 100 µM in the assay on KM12 colon. Also, the TGI in the assay on SF-539 CNS was greater than 100 µM; in the assay on OVCAR-4 ovarian, 90.9 µM.
Consider `COc1cc2c3c(n(CCCNCCCNCCCNCCCN)c(=O)c2cc1OC)-c1cc2c(cc1C3=O)OCO2`, for which the GI50 with HOP-92 NSCLC is 2.74 µM; in the assay on HL-60(TB) leukemia, 1.36 µM; in the assay on 786-0 renal, 2.31 µM; in the assay on CAKI-1 renal it was 1.78 µM; in the assay on SK-OV-3 ovarian, 8.52 µM; in the assay with LOX IMVI melanoma, 1.15 µM. Besides, the GI50 is 1.73 µM in the assay with KM12 colon and 4.34 µM with OVCAR-4 ovarian. Besides, the TGI in the assay with HOP-92 NSCLC was 9.64 µM; with HL-60(TB) leukemia, 3.3 µM; in the assay on 786-0 renal, 7.68 µM; in the assay on CAKI-1 renal it was 3.8 µM; in the assay on SK-OV-3 ovarian, greater than 100 µM; in the assay with LOX IMVI melanoma it was 3.25 µM. In addition, the TGI with KM12 colon is 4.03 µM; in the assay with OVCAR-4 ovarian, 58 µM.
As for `O=C(c1ccccc1)c1oc2ccc(Br)cc2c1-c1cnn(-c2ccccc2)c1`, the TGI in the assay on HOP-92 NSCLC, in the assay on HL-60(TB) leukemia, with 786-0 renal, with CAKI-1 renal, with SK-OV-3 ovarian and in the assay on LOX IMVI melanoma was greater than 100 µM in each case. For the same compound, the TGI in the assay on KM12 colon and in the assay with OVCAR-4 ovarian was greater than 100 µM throughout.
With `CC1(C)OB(O)OC1(C)C`, the TGI with HL-60(TB) leukemia, in the assay with 786-0 renal, with CAKI-1 renal, in the assay with SK-OV-3 ovarian, with LOX IMVI melanoma and in the assay with KM12 colon was greater than 100 µM in each case. In addition, the TGI with SF-539 CNS and with OVCAR-4 ovarian was greater than 100 µM each time.

(Values after PubChem BioAssay (NCI).)
